Source: patent US20170136008A1, “OXABICYCLOHEPTANES AND OXABICYCLOHEPTENES FOR THE TREATMENT OF OVARIAN CANCER” (priority 2014, published 2017)

Legend:
Type in all cases: cell-based, human
[1] = test system: OVCAR-8 PP2Ac shRNA-expressing cells; assay: Cell viability (MTT) assay, OVCAR-8 PP2Ac shRNA; details: OVCAR-8 PP2Ac shRNA
Experimental: Cell survival was measured by the 3-(4,5-dimethylthiazol-2-yl)-2,5-diphenyltetrazolium bromide (MTT, Invitrogen) assay. Cells were seeded at a density of 5,000 cells per well in 96-well plates and incubated at 37° C. in humidified 5% CO2 for 24 hours. The 50% inhibitory concentration (IC50) values were defined as the drug concentrations required to reduce cellular proliferation to 50% of the untreated control well. […] All MTT assays were carried out according to the manufacturer's instructions (Molecular Probes, Eugen, Oreg.). Absorbance values were determined at […] on a Spectra Max 250 spectrophotometer (Molecular Devices, Sunnyvale, Calif.). All MTT assays were performed in triplicate. […] Cells were treated with both drugs for 72 h. Cell viability was analyzed via the MTT assay as described above. Experiments were performed in triplicate, and the data are presented as a percent mean±SD.
To stably knockdown expression of PP2AC, a pLKO.1-puro plasmid-based […] shRNA targeting the sequence: […] (clone ID:TRCN0000002483, Sigma-Aldrich) was employed (PP2AC-shRNA). Additionally, a non-targeting shRNA plasmid (NT-shRNA) that targets no known human sequence was utilized as a control. […]

[2] = test system: OVCAR-8 ovarian cancer cells; assay: MTT cytotoxicity assay, OVCAR-8; details: OVCAR8, read-out: IC50, viability of ovarian cancer cell line
Experimental: (§1) SKOV-3 ovarian cancer cells were purchased from American Type Culture Collection (ATCC) (Manassas, Va.). SKOV-3 cells were cultured in McCoy's 5A medium (ATCC, Manassas, Va.) supplemented with 10% fetal bovine serum and 100 units/mL penicillin G sodium, 100 ug/mL streptomycin sulfate, and 292 μg/ml, L-glutamine (BioWhittaker, Wakersville, Md.). Luciferase-expressing cells were generated by infecting SKOV-3 cells with pCLNCX-luciferase retrovirus (SKOV-3-Luc) as previously reported (Wei, B. R. et al. 2009). Human OVCAR-8 ovarian cancer cells were provided by the National Cancer Institute (part of the NCI-60 collection). The PEO1, PEO4, and PEO6 ovarian cancer cell lines have previously been characterized (Langdon, S. P. et al. 1988) and were kindly provided by Dr. Ian Goldlust (National Center for Advancing Translational Sciences, Shady Grove, Md.). […]
(§2) Cell survival was measured by the 3-(4,5-dimethylthiazol-2-yl)-2,5-diphenyltetrazolium bromide (MTT, Invitrogen) assay. […] Absorbance values were determined at […] on a Spectra Max 250 spectrophotometer (Molecular Devices, Sunnyvale, Calif.). […] Cell viability was analyzed via the MTT assay as described above. […]

[3] = test system: PEO1-STOP (PEO-1s) ovarian cancer cell line; assay: MTT cytotoxicity assay, PEO1-STOP; details: PEO1-STOP; MTT; read-out: IC50, viability of ovarian cancer cell line
Experimental: as §1, §2

[4] = test system: PEO4 ovarian cancer cell line; assay: MTT cytotoxicity assay, PEO4; details: PEO4; MTT; read-out: IC50, viability of ovarian cancer cell line
Experimental: as §1, §2

[5] = test system: SKOV-3 ovarian cancer cells; assay: MTT cytotoxicity assay, SKOV-3; details: SK-OV3; MTT; read-out: IC50, viability of ovarian cancer cell line
SKOV-3 cells = assay: Cell-cycle analysis (FACS), SKOV-3
Experimental: (§3) For cell-cycle analysis, cells were washed with PBS and fixed overnight in ice-cold 70% ethanol and stored at 4° C. Cells were then centrifuged and resuspended in 100 U RNAse (Sigma-Aldrich), and incubated at 37° C. for 20 min. Propidiumidodide solution (Invitrogen, 500 μL, 50 μg/mL in DPBS) was added to each tube and incubated in the dark at 4° C. overnight. Flow cytometry analysis was performed with CellQuestPro and data analysis was completed with ModFit LT. All data is in triplicate and presented as a percent mean±SD.

[6] = test system: PEO1-Missense (PEO-1m) ovarian cancer cell line; assay: MTT cytotoxicity assay, PEO1-Missense; details: PEO1-Missense; MTT; read-out: IC50, viability of ovarian cancer cell line
Experimental: as §1, §2

OVCAR-8 cells = assay: Cell-cycle analysis (FACS), OVCAR-8; details: cisplatin 5 μM
Experimental: as §3

[7] = test system: PEO6 ovarian cancer cell line; assay: MTT cytotoxicity assay, PEO6; details: read-out: IC50, viability of ovarian cancer cell line
Experimental: as §1, §2

SMILES: N.N.[Cl][Pt][Cl] [Cisplatin, cis-[PtCl2(NH3)2], reference compound]
- sensitivity to cisplatin, PP2Ac knockdown compared to non-targeted control [1]: sensitized
- IC50 [2]: 7.2 ± 2.3 µM
- IC50 [3]: 2.3 ± 0.3 µM
- IC50 [4]: 4.3 ± 1.8 µM
- IC50 [5]: 7.6 ± 1.6 µM
- G1 (%) (SKOV-3 cells; 24 h, cisplatin 2 μM): 23.0 ± 0.2%
- G2/M (%) (SKOV-3 cells; 24 h, cisplatin 2 μM): 8.4 ± 0.3%
- S (%) (SKOV-3 cells; 24 h, cisplatin 2 μM): 68.6 ± 0.1%
- G1 (%) (SKOV-3 cells; 24 h, cisplatin 5 μM): 11.6 ± 0.5%
- G2/M (%) (SKOV-3 cells; 24 h, cisplatin 5 μM): 13.5 ± 0.7%
- S (%) (SKOV-3 cells; 24 h, cisplatin 5 μM): 75.2 ± 1.0%
- G1 (%) (SKOV-3 cells; 24 h, cisplatin 18 μM): 49.8 ± 2.3%
- G2/M (%) (SKOV-3 cells; 24 h, cisplatin 18 μM): 16.6 ± 1.3%
- S (%) (SKOV-3 cells; 24 h, cisplatin 18 μM): 33.6 ± 1.8%
- S (%) (SKOV-3 cells; 24 h, cisplatin 18 μM, listed as cisplatin): 33±2%
- G1 (%) (SKOV-3 cells; 24 h, cisplatin 20 μM): 67.7 ± 1.2%
- G2/M (%) (SKOV-3 cells; 24 h, cisplatin 20 μM): 16.3 ± 0.9%
- S (%) (SKOV-3 cells; 24 h, cisplatin 20 μM): 16.0 ± 1.2%
- G1 (%) (SKOV-3 cells; 48 h, cisplatin 18 μM): 40.4 ± 0.8%
- G2/M (%) (SKOV-3 cells; 48 h, cisplatin 18 μM): 21.2 ± 1.0%
- S (%) (SKOV-3 cells; 48 h, cisplatin 18 μM): 38.4 ± 0.5%
- IC50 [6]: 2.1 ± 0.4 µM
- G1 (%) (OVCAR-8 cells; 24 h): 4.6 ± 2.0%
- G2/M (%) (OVCAR-8 cells; 24 h): 13.4 ± 0.6%
- S (%) (OVCAR-8 cells; 24 h): 81.9 ± 1.6%
- G1 (%) (OVCAR-8 cells; 48 h): 0.85 ± 0.3%
- G2/M (%) (OVCAR-8 cells; 48 h): 78.5 ± 2.2%
- S (%) (OVCAR-8 cells; 48 h): 20.7 ± 2.1%
- IC50 [7]: 8 ± 1.9 µM
